Assay results from patent US10369119B2 (priority 2015, dated 2019).
Entries after “also recorded” stand apart in the source; their conditions may differ.

Tests used:
Senegal ZIKV [1] = experiment: Zika virus high content imaging infection assay, Senegal strain DAK AR D 41525 in human astrocytes; format: cell-based; conditions: Astrocyte, 2 hours pretreatment, MOI 15, 48 hours, read-out: EC50 for inhibition of abundance of Senegal ZIKV in human astrocytes
caspase-9 = molecular target: T1, caspase-9 (Homo sapiens, UniProt P55211); format: biochemical
T1 construct: purchased BioVision

anthrax LF toxin = anthrax LF toxin (Bacillus anthracis, UniProt P15917); format: cell-based
[2] = test system: botulinum neurotoxin serotype A complex (BoNT/A); design: species or system Swiss Webster (CFW) mice; conditions: mouse, in vivo
caspase-3/7 = format: biochemical, mouse
caspase-3 [3] = molecular target: T2, caspase-3 (Homo sapiens, UniProt P42574); format: biochemical
T2 construct: purchased BioVision

BoNT/A light chain = BoNT/A light chain (Clostridium botulinum, UniProt P0DPI0); format: biochemical
caspase-6 [4] = molecular target: T3, caspase-6 (Homo sapiens, UniProt P55212); format: biochemical
T3 construct: purchased BioVision

furin = molecular target: T4, furin (Mus musculus, UniProt P23188); format: cell-based
T4 construct: endogenous in cells; host or cells: RAW264.7

[5] = test system: Pseudomonas aeruginosa exotoxin A (PE)-mediated cytotoxicity in RAW264.7 cells; experiment: cells; conditions: Mus musculus, RAW264.7, read-out: EC50 for reduction of Pseudomonas toxin-mediated cytotoxicity
caspase-1 [6] = molecular target: T5, caspase-1 (Mus musculus, UniProt P29452); format: cell-based
T5 construct: Cathepsin B and caspase-1 activities in total cell lysates were determined; endogenous in cells; host or cells: RAW264.7

[7] = test system: PE-sensitive HapMap cells (human B-lymphocytes); format: cell-based
caspase-3 [8] = molecular target: T6, caspase-3 (Mus musculus, UniProt P70677); experiment: biochemical; format: biochemical
T6 construct: Caspases were induced in RAW264.7 by treating cells with 2 μg/ml of PE for 4 hours; endogenous in cells; host or cells: RAW264.7 (lysate after PE treatment)

[9] = test system: Diphtheria toxin-mediated cytotoxicity in C32 cells; experiment: cells; conditions: Homo sapiens, C32, read-out: EC50 for reduction of diphtheria toxin-mediated cytotoxicity
Senegal ZIKV [10] = experiment: Zika virus high content imaging infection assay, Senegal strain DAK AR D 41525 in Vero E6 cells; format: cell-based; conditions: Vero C1008, 2 hours pretreatment, MOI 0.5, 48 hours, read-out: EC50 for inhibition of abundance of Senegal ZIKV in Vero E6 cells
caspase-7 = molecular target: T7, caspase-7 (Homo sapiens, UniProt P55210); format: biochemical
T7 construct: purchased BioVision

caspase-6 [11] = molecular target: T8, caspase-6 (Mus musculus, UniProt O08738); experiment: biochemical; format: biochemical
T8 construct: Caspases were induced in RAW264.7 by treating cells with 2 μg/ml of PE for 4 hours; endogenous in cells; host or cells: RAW264.7 (lysate after PE treatment)

[12] = test system: cholera toxin-mediated cytotoxicity in RAW264.7 cells; experiment: cells; conditions: Mus musculus, RAW264.7, read-out: EC50 for reduction of cholera toxin-mediated cytotoxicity
cathepsin-B = molecular target: T9, cathepsin-B (Mus musculus, UniProt P10605); format: cell-based
T9 construct: Cathepsin B and caspase-1 activities in total cell lysates were determined; endogenous in cells; host or cells: RAW264.7

caspase-1 [13] = molecular target: T10, caspase-1 (Homo sapiens, UniProt P29466); format: biochemical
T10 construct: purchased BioVision

[14] = test system: LF-PA-mediated cell killing in RAW264.7 cells; format: cell-based, mouse
Puerto Rico ZIKV = experiment: Zika virus high content imaging infection assay, Puerto Rico strain PRVABC59 in Vero E6 cells; format: cell-based; conditions: Vero C1008, 2 hours pretreatment, MOI 0.5, 48 hours, read-out: EC50 for inhibition of abundance of Puerto Rico ZIKV in Vero E6 cells
other caspases = format: biochemical, human
[15] = test system: Diphtheria toxin-mediated cytotoxicity in C32 cells
[16] = test system: cholera toxin-mediated cytotoxicity in RAW264.7 cells
[17] = test system: Pseudomonas aeruginosa exotoxin A (PE)-mediated cytotoxicity in RAW264.7 cells

anthrax LF toxin, sequence (P15917 34-809 limits assumed): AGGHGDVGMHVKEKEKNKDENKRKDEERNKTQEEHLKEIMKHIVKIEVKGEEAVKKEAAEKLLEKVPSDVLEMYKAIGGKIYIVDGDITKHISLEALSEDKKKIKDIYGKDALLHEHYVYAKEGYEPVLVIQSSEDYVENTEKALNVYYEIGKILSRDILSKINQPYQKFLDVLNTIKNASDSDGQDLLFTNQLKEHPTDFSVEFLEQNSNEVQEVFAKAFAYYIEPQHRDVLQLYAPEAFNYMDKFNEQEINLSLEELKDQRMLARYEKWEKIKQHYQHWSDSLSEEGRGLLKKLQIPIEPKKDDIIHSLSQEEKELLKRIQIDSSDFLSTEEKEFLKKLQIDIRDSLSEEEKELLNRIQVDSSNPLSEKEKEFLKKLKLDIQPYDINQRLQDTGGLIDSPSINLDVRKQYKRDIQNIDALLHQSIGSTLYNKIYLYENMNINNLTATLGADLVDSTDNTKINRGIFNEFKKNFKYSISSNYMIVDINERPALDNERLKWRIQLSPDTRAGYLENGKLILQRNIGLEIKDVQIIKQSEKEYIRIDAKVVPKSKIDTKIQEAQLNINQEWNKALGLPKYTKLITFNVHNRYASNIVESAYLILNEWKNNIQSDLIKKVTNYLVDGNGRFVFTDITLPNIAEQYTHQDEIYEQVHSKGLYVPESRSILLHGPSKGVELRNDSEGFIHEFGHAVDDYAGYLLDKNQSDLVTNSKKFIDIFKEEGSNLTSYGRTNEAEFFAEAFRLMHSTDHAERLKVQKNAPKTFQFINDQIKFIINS
T8 sequence (O08738 6-162 limits assumed): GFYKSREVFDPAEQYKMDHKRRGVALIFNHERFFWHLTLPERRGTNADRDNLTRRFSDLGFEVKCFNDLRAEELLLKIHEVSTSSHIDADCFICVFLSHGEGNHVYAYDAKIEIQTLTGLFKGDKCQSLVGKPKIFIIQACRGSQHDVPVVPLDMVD
T8 sequence (O08738 176-276 limits assumed): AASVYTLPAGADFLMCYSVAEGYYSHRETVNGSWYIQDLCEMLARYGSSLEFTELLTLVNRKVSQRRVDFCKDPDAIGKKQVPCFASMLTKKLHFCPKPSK
T6 sequence (P70677 29-175 limits assumed): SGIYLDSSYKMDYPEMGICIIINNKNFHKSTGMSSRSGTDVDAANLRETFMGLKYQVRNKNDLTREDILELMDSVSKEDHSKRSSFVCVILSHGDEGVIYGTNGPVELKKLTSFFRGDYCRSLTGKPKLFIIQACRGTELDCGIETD
T6 sequence (P70677 176-277 limits assumed): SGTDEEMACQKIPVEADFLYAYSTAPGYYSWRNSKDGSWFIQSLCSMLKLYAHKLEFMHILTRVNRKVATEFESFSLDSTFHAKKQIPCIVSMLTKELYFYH
T1 sequence (P55211 1-315 limits assumed): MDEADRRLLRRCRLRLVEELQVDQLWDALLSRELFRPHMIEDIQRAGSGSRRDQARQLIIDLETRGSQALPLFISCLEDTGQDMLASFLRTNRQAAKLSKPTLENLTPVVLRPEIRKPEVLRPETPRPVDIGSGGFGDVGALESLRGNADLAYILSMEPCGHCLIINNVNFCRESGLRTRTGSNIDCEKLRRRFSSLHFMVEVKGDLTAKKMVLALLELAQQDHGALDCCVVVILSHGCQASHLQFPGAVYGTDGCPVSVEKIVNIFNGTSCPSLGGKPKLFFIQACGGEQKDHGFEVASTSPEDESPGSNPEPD
T1 sequence (P55211 331-416 limits assumed): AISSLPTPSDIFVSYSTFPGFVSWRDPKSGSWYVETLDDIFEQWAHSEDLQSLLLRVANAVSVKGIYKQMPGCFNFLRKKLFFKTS
T3 sequence (P55212 24-179 limits assumed): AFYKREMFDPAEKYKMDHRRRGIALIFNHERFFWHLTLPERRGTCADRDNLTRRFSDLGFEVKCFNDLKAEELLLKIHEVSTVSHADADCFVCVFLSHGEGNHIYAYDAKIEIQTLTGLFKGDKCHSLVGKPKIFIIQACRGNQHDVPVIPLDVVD
T3 sequence (P55212 194-293 limits assumed): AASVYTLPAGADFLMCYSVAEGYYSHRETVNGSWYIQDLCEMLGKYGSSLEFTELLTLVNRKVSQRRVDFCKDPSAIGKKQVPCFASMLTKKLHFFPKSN
T5 sequence (P29452 119-296 limits assumed): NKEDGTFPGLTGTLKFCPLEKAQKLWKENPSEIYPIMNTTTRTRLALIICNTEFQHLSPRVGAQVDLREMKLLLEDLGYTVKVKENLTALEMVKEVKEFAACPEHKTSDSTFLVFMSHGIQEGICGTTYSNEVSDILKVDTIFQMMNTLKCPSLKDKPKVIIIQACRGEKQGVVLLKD
T5 sequence (P29452 315-402 limits assumed): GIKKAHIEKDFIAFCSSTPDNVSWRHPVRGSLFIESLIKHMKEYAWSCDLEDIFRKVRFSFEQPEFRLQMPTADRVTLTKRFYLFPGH
T2 sequence (P42574 29-175 limits assumed): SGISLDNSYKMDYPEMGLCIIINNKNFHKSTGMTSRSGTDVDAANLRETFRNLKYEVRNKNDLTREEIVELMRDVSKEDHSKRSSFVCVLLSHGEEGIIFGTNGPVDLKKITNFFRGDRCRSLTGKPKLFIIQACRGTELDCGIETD
T2 sequence (P42574 176-277 limits assumed): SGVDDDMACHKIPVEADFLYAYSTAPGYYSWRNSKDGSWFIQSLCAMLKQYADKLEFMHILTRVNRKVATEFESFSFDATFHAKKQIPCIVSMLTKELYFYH
BoNT/A light chain, sequence (P0DPI0 2-448 limits assumed): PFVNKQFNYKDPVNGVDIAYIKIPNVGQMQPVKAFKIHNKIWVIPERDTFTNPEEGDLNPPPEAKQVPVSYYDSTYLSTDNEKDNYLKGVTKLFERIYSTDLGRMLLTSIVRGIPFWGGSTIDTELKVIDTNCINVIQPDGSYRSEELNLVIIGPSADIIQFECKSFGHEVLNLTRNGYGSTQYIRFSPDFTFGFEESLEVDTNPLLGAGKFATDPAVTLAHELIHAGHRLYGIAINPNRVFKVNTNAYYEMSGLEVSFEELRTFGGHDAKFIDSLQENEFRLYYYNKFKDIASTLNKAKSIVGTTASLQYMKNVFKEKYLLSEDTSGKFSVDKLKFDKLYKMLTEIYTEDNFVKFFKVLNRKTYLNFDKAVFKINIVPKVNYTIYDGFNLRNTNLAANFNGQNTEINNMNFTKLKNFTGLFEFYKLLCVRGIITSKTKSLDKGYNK
T4 sequence (P23188 108-793): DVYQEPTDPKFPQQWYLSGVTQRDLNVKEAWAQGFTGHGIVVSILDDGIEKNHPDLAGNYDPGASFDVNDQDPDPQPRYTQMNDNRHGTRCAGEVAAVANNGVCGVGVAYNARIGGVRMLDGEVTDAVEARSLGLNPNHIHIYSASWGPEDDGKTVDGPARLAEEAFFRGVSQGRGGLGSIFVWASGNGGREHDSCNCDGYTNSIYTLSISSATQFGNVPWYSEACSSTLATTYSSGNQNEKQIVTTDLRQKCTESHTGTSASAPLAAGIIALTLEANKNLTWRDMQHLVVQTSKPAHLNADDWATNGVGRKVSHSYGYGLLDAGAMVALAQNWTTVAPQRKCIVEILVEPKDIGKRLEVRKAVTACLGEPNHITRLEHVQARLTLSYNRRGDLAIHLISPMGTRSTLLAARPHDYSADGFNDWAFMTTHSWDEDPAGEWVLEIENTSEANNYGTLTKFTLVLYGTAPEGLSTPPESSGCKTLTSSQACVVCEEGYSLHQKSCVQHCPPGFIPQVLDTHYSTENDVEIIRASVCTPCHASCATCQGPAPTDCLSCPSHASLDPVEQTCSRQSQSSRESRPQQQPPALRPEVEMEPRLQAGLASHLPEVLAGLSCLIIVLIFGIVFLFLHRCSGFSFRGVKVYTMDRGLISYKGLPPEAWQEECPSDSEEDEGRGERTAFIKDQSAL
T7 sequence (P55210 24-198 limits assumed): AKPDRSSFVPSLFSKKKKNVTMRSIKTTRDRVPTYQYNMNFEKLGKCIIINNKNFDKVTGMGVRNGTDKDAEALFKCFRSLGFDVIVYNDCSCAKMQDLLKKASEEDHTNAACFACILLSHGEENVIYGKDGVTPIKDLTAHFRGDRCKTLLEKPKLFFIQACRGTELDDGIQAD
T7 sequence (P55210 207-303 limits assumed): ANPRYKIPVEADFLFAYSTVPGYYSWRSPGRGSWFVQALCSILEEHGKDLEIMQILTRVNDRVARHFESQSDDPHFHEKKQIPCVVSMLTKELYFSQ
T9 sequence (P10605 80-333): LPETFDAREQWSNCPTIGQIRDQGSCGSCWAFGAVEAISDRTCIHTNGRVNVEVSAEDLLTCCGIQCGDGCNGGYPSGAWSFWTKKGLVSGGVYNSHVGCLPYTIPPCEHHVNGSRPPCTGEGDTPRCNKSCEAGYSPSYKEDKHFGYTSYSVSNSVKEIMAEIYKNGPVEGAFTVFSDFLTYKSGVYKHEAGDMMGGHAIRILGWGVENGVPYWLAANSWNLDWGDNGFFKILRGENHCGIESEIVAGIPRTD
T10 sequence (P29466 120-297 limits assumed): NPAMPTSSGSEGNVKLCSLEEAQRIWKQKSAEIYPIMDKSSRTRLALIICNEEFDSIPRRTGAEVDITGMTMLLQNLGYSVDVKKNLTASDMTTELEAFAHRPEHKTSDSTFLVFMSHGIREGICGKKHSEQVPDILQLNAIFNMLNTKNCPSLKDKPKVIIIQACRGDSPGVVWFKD
T10 sequence (P29466 317-404 limits assumed): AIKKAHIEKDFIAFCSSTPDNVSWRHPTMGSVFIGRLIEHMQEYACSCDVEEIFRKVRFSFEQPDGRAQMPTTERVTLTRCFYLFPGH

Oc1c(Cl)cc(Cl)cc1Sc1cc(Cl)cc(Cl)c1O [Bithionol]
EC50 (Senegal ZIKV [1]): 6.3 µM
Inhibition of purified recombinant human caspase-9 activity (caspase-9): inhibited activities
Inhibition of proteolytic activity of cellular LF (MAPKK2 proteolysis) (anthrax LF toxin): does not block proteolysis; also recorded: does not inhibit
Survival of mice challenged with lethal oral dose of BoNT/A complex [2]: all of the mice
Toxin-associated symptoms (wasp waist, paralysis) in BoNT/A challenged mice [2]: without displaying toxin-associated symptoms
CCL FRET screen hit: reduction of proteolysis of caspase-3/7 substrate (caspase-3/7; 33 μM): capable of prominently reducing the proteolysis of all three caspase substrates
IC50 (caspase-3/7; read-out: IC50 for inhibition of proteolytic cleavage of caspase-3/7 substrate): 11 µM
Inhibition of purified recombinant human caspase-3 activity (caspase-3 [3]): inhibited activities
Effect on proteolysis rate of fluorescent SNAP-25 substrate by BoNT/A (BoNT/A light chain): did not affect the proteolysis rate
Inhibition of purified recombinant human caspase-6 activity (caspase-6 [4]): inhibited activities
Inhibition of proteolytic activity of cellular furin (furin): does not inhibit
EC50 [5]: 10 µM
Caspase-1 induction upon LF-PA treatment (caspase-1 [6]): caspase-1 induction was not detected
Reduction of cellular sensitivity to PE in PE-sensitive HapMap cells [7]: protected three cell lines
IC50 (caspase-3 [8]): 21 µM
CCL FRET screen hit: reduction of proteolysis of caspase-3 substrate (caspase-3 [8]; 33 μM): capable of prominently reducing the proteolysis of all three caspase substrates
EC50 [9]: 10 µM
EC50 (Senegal ZIKV [10]): 5.5 µM
Inhibition of purified recombinant human caspase-7 activity (caspase-7): inhibited activities
IC50 (caspase-6 [11]): 13 µM
CCL FRET screen hit: reduction of proteolysis of caspase-6 substrate (caspase-6 [11]; 33 μM): capable of prominently reducing the proteolysis of all three caspase substrates
EC50 [12]: 10 µM
Inhibition of proteolytic activity of cellular cathepsin-B (cathepsin-B): does not inhibit
Inhibition of purified recombinant human caspase-1 activity (caspase-1 [13]): inhibited activities
Protection against LF-PA-mediated cell killing [14]: substantial protection
EC50 (Puerto Rico ZIKV): 6.7 µM
Inhibition of other purified recombinant human caspases (other caspases): no inhibitory effects

Oc1cccc(O)c1O [Pyrogallol]
CCL cellular screen hit: reduction of diphtheria toxin cytotoxicity [15]: capable of reducing the cytotoxicities of all three toxins
CCL cellular screen hit: reduction of cholera toxin cytotoxicity [16]: capable of reducing the cytotoxicities of all three toxins
CCL cellular screen hit: reduction of PE cytotoxicity [17]: capable of reducing the cytotoxicities of all three toxins
